The record followed here is patent US8361988B2, “Nucleoside and nucleotide analogues with quaternary carbon centers and methods of use” (Institut de Recherches Cliniques de Montreal, priority 2007, dated 2013).

A short description of data set [1]: MTT cell proliferation assay, PFSK-1. Type of data set: cell-based. Conditions: human, PFSK-1 cells, concentration causing 50% cell death of initial cell count over 24 hours, 1% DMSO. The method, then: (§1) The antitumor activities of the compounds of the invention were evaluated by a cellular proliferation assay. […] The cleavage reaction form a purple formazan crystals which is largely impermeable to cell membranes resulting in its accumulation within healthy cells. Solubilisation of the cells by addition of a detergent liberates and solubilizes the formazan crystals. The number of surviving cells is directly proportional to the level of the formazan product created. The color can then be quantified spectrophotometrically. The production of purple formazan in cells treated with a compound is measured relative to the production in control cells, and dose-response curves can be generated. This assay measures the cell proliferation rate and conversely, when metabolic events lead to apoptosis or necrosis, the reduction in cell viability, thus also allowing the evaluation of the cytotoxicity of the analogues synthesized in the laboratory.
(§2) For Tables 3 and 4, the assays were performed with 1% DMSO. The abbreviation “n.d.” means “not determined.” The values EC50, CC50, and SI have the following definitions.
(§3) Cell growth equals total cell count without any inhibitor after 72 hours minus initial cell count.
(§4) SI: Selectivity Index is the ratio CC50/EC50.

Another data set relates to PFSK-1. Description: MTT cell proliferation assay, PFSK-1. Type of data set: cell-based. Conditions: Homo sapiens, PFSK-1, 72 h, concentration reducing cell growth by 50% after 72 hours, 1% DMSO. The method, then:
as §1, §2, §3, §4
A general note: Tetrazolium dyes change colour on reduction, which living cells bring about.

The nature of data set [2]: MTT cell proliferation assay, ZR-75-1. The following applies: human, ZR-75-1 cells, concentration causing 50% cell death of initial cell count over 24 hours, 1% DMSO. Type of data set: cell-based. The method, then: (§5) The antitumor activities of the compounds of the invention were evaluated by a cellular proliferation assay. The MTT [3-(4,5-dimethylthiazol-2-yl)-2,5-diphenyltetrazolium bromide] cell proliferation assay, first described by Mosmann (Mosmann T., “Rapid colorimetric assay for cellular growth and survival: application to proliferation and cytotoxicity assays,” J. Immunol. Methods 1983 Dec. 16; 65(1-2):55-63, and incorporated by reference in its entirety) is based on the ability of active mitochondrial reductase enzymes from viable cells to cleave the tetrazolium rings of the pale yellow MTT. The cleavage reaction form a purple formazan crystals which is largely impermeable to cell membranes resulting in its accumulation within healthy cells. Solubilisation of the cells by addition of a detergent liberates and solubilizes the formazan crystals. The number of surviving cells is directly proportional to the level of the formazan product created. The color can then be quantified spectrophotometrically. The production of purple formazan in cells treated with a compound is measured relative to the production in control cells, and dose-response curves can be generated. This assay measures the cell proliferation rate and conversely, when metabolic events lead to apoptosis or necrosis, the reduction in cell viability, thus also allowing the evaluation of the cytotoxicity of the analogues synthesized in the laboratory.
as §2
(§6) Cell growth equals total cell count without any inhibitor after 72 hours minus initial cell count. Total cell counts after 72 hrs of growth range from 230 to 346% of initial cell counts depending on the cell line.
(§7) Total cell counts after 24 hrs of growth range from 103 to 109% of initial cell counts depending on the cell line.
as §4

In another data set the test system is ZR-75-1. Description: MTT cell proliferation assay, ZR-75-1. Type of data set: cell-based. Conditions: Homo sapiens, ZR-75-1, 72 h, concentration reducing cell growth by 50% after 72 hours, 1% DMSO. The protocol:
as §5, §2, §6, §7, §4

The target of data set [3] is T1, Drosophila melanogaster dNK (Drosophila melanogaster, UniProt Q9XZT6).
T1 sequence (Q9XZT6 1-250): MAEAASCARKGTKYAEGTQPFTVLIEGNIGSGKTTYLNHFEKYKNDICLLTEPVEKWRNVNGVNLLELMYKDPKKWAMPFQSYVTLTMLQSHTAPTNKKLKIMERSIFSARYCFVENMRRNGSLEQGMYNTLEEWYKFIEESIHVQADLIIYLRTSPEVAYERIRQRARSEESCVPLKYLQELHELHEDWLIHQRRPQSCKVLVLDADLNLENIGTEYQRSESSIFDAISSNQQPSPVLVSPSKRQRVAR
Briefly: Phosphorylation assay (spectrophotometric coupled-enzyme), D. melanogaster dNK. Type of data set: biochemical. Conditions: substrate at 100 μM, 37° C., 1 mM ATP, triplicate. The method, then:
Compounds of the invention were also tested in a phosphorylation assay using three deoxynucleoside kinases. […] The compounds were at substrate concentration of 100 μM.
Kinetic assay. […] Briefly, the individual nucleosides at 100 μM were prepared in reaction buffer containing 50 mM Tris-HCl (pH 7.5), 0.1 M KCl, 5 mM MgCl2, 1 mM DTT, 1 mM ATP, 0.21 mM phosphoenolpyruvate, 0.18 mM NADH, and 2 units/ml pyruvate kinase and 2 units/ml lactate dehydrogenase (Roche Biochemicals, Indianapolis, Ind.). Assays were performed at 37° C. by measuring the absorbance change at 340 nm. The enzyme amount was adjusted to limit NADH turnover to 10% over the time of the experiment. All experiments were performed in triplicate.

The target in data set [4] is Thermotoga maritima thymidine kinase (Thermotoga maritima, UniProt Q9WYN2). Description: Phosphorylation assay (spectrophotometric coupled-enzyme), T. maritima TK. Type of data set: biochemical. Conditions: substrate at 100 μM, 37° C., 1 mM ATP, triplicate. The method, then:
Compounds of the invention were also tested in a phosphorylation assay using three deoxynucleoside kinases. The kinases include human dCK, which is responsible for the activation of numerous nucleoside analog prodrugs; Drosophila melanogaster dNK, which is the fastest known kinases with the broadest substrate specificity profile; and Thermotoga maritima thymidine kinase, which is a good surrogate for human thymidine kinase 1, a member of the distinct type II kinase subfamily. The compounds were at substrate concentration of 100 μM.
Kinetic assay. Substrate phosphorylation was determined using a spectrophotometric coupled-enzyme assay (Munch-Petersen et al. (2000) J. Biol. Chem. vol. 275p. 66′73-66′79; Schelling et al. (2001) Anal. Biochem vol. 295 p. 82-8′7). Briefly, the individual nucleosides at 100 μM were prepared in reaction buffer containing 50 mM Tris-HCl (pH 7.5), 0.1 M KCl, 5 mM MgCl2, 1 mM DTT, 1 mM ATP, 0.21 mM phosphoenolpyruvate, 0.18 mM NADH, and 2 units/ml pyruvate kinase and 2 units/ml lactate dehydrogenase (Roche Biochemicals, Indianapolis, Ind.). Assays were performed at 37° C. by measuring the absorbance change at 340 nm. The enzyme amount was adjusted to limit NADH turnover to 10% over the time of the experiment. All experiments were performed in triplicate.

The nature of data set [5]: in vitro. The following applies: human, MOLT-4 cells.
Data set [6] in a line: in vitro. Conditions: human, NCI H1395 cells.
A short description of data set [7]: in vitro. Conditions: human, NCI H2052 cells.

Thermotoga maritima thymidine kinase, sequence (Q9WYN2 whole entry): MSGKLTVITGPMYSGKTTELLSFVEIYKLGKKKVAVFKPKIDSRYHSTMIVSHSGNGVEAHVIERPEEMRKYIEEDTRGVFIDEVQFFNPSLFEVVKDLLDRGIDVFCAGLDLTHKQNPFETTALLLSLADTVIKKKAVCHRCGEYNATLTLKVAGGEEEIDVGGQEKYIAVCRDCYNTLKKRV

As for `Cc1cc(=O)[nH]c(=O)n1[C@H]1CC(C)(CO)[C@@H](CO)O1` (mixture of isomers) [LCB-1021, 1-(4,5-Bis-hydroxymethyl-4-methyl-tetrahydro-furan-2-yl)-6-methyl-1H-pyrimidine-2,4-dione], the half-maximal cytotoxic concentration (CC50) at 24 h (in data set [1]; in data set [2]; in “in vitro [5]”; in the data set “in vitro [6]”; in the data set “in vitro [7]”) was over 500 µM in each case. For the same compound, the EC50 in the data set with PFSK-1 and with ZR-75-1 was over 500 µM each time. Further, the “D. melanogaster dNK substrate phosphorylation” value in data set [3] is listed as <0.1 10^6 μmol/min mg. In addition, in [4], the “T. maritima TK substrate phosphorylation” value is 2.2 10^−3 μmol/min mg.

As for `COC(=O)C1(C)C[C@H](n2cc(F)c(=O)[nH]c2=O)O[C@@H]1CO` (mixture of isomers) [LCB-1022, 5-(5-Fluoro-2,4-dioxo-3,4-dihydro-2H-pyrimidin-1-yl)-2-hydroxymethyl-3-methyl-tetrahydro-furan-3-carboxylic acid methyl ester], the “D. melanogaster dNK substrate phosphorylation” value in [3] (listed as LCB-1022-1) was 1.88 10^6 μmol/min mg. Further, the “T. maritima TK substrate phosphorylation” value in [4] (listed as LCB-1022-1) is reported as 3 10^−3 μmol/min mg. In “in vitro [5]”, the CC50 at 24 h is over 500 µM.

Take `C[C@@]12CC(n3cc(F)c(N)nc3=O)O[C@@H]1COC2=O` (mixture of isomers) [LCB-1028]: the CC50 at 24 h (in [1]; in data set [2]; in the data set “in vitro [5]”; in the data set “in vitro [6]”; in “in vitro [7]”) was over 500 µM each time. Further, the concentration for a half-maximal effect (EC50) in the data set on PFSK-1 and with ZR-75-1 was over 500 µM each time.

`C[C@@]12CC(n3ccc(N)nc3=O)O[C@@H]1COC2=O` (mixture of isomers) [LCB-1029]: the CC50 at 24 h (in data set [1]; in data set [2]; in “in vitro [5]”; in “in vitro [6]”; in the data set “in vitro [7]”) was over 500 µM each time. Besides, the EC50 in the data set with PFSK-1 and with ZR-75-1 was over 500 µM throughout.

In the case of `CC1(C(N)=O)CC(n2cc(F)c(N)nc2=O)O[C@@H]1CO` (mixture of isomers) [LCB-1030], the CC50 at 24 h (in [1]; in [2]; in “in vitro [5]”; in “in vitro [6]”; in “in vitro [7]”) was over 500 µM throughout. The EC50 with PFSK-1 and with ZR-75-1 was over 500 µM in each case.

As for `Cc1cc(=O)[nH]c(=O)n1[C@H]1CC2(C)C(=O)OC[C@H]2O1` (single isomer, unassigned) [LCB-1020, 6-Methyl-1-(3a-methyl-4-oxo-hexahydro-furo[3,4-b]furan-2-yl)-1H-pyrimidine-2,4-dione], the CC50 at 24 h (in [1]; in data set [2]; in the data set “in vitro [5]”; in “in vitro [6]”; in “in vitro [7]”) was over 500 µM each time. Also, the EC50 in the data set with PFSK-1 and with ZR-75-1 was over 500 µM in each case. Further, the “D. melanogaster dNK substrate phosphorylation” value in data set [3] is <0.1 10^6 μmol/min mg. The “T. maritima TK substrate phosphorylation” value in [4] is recorded as <1 10^−3 μmol/min mg.

On to `CCOC(=O)[C@@H]1O[C@H](n2cc(F)c(=O)[nH]c2=O)CC1(C)C(=O)OCC` (stereo in doubt) [LCB-1024, (2R,5S)-diethyl5-(5-fluoro-2,4-dioxo-3,4-dihydropyrimidin-1(2H)-yl)-3-methyltetrahydrofuran-2,3-dicarboxylate], for which the CC50 at 24 h (in data set [1]; in data set [2]; in “in vitro [5]”; in the data set “in vitro [6]”; in “in vitro [7]”) was over 460 µM each time. The EC50 is 190 µM in the data set on PFSK-1 and over 460 µM in the data set with ZR-75-1. Also, the “D. melanogaster dNK substrate phosphorylation” value in data set [3] is listed as <0.1 10^6 μmol/min mg. Further, in [4], the “T. maritima TK substrate phosphorylation” value was 4.2 10^−3 μmol/min mg.

`CCOC(=O)[C@@H]1O[C@H](n2cc(C)c(=O)[nH]c2=O)CC1(C)C(=O)OCC` (stereo partly drawn) [LCB-1019, (2R,5S)-diethyl 3-methyl-5-(5-methyl-2,4-dioxo-3,4-dihydropyrimidin-1(2H)-yl)tetrahydrofuran-2,3-dicarboxylate]: the CC50 at 24 h (in [1]; in data set [2]; in the data set “in vitro [5]”; in the data set “in vitro [6]”; in “in vitro [7]”) was over 460 µM in each case. The EC50 with PFSK-1 and in the data set with ZR-75-1 was over 460 µM each time. For the same compound, the “D. melanogaster dNK substrate phosphorylation” value in data set [3] is <0.1 10^6 μmol/min mg. Moreover, the “T. maritima TK substrate phosphorylation” value in data set [4] is on record as 6.1 10^−3 μmol/min mg.

As to `CCOC(=O)[C@@H]1O[C@H](n2ccc(=O)[nH]c2=O)CC1(C)C(=O)OCC` (stereo partly drawn) [LCB-1025, (2R,5S)-diethyl 5-(2,4-dioxo-3,4-dihydropyrimidin-1(2H)-yl)-3-methyltetrahydrofuran-2,3-dicarboxylate], the CC50 at 24 h (in [1]; in data set [2]; in “in vitro [5]”; in the data set “in vitro [6]”; in “in vitro [7]”) was over 460 µM each time. Also, the EC50 with PFSK-1 and in the data set on ZR-75-1 was over 460 µM each time. Besides, the “D. melanogaster dNK substrate phosphorylation” value in data set [3] is on record as <0.1 10^6 μmol/min mg. Also, the “T. maritima TK substrate phosphorylation” value in data set [4] was <1 10^−3 μmol/min mg.

What is called CC50 is the concentration that lowers cell viability or growth by half. Read a high CC50 as lower toxicity to the cells. One may read the EC50 as the midpoint of the concentration-response curve. A low value points to a more potent agent.
